{
  "source": "patent US9585877B2",
  "about": "“Methods of maintaining, treating or improving cognitive function” (Forum Pharmaceuticals, Inc., priority 2012, dated 2017)",
  "format_in_all_cases": "in vivo, human",
  "key": {"[1]": {"test_system": "subjects with mild-to-moderate Alzheimer's disease", "assay": "Clinical study, ADAS-Cog-11", "description": "(§1) A double-blind study of 3 doses of the Test Composition or placebo in subjects with mild-to-moderate Alzheimer's disease, with or without receiving a concomitant AChEI for 24 weeks (168 days) after a 7 day placebo run-in period.\n(§2) Total number of subjects in the safety population was 409 subjects that were dosed once-daily with a dosing-capsule for a period of 168 days. The subjects dosed, and the particular dosing, included: 104 subjects dosed with Placebo capsule; and 305 subjects dosed with Test Compound (104 subjects with 0.3 mg capsules; 101 subjects with 1 mg capsules; and 100 subjects with 2 mg capsules).\n(§3) The population included generally healthy male or female subjects, aged 50 to ≦85 years, with mild-to-moderate Alzheimer's disease, consistent with criteria defined by a Work Group of the National Institute of Neurological and Communicative Disorders and Stroke—Alzheimer's Disease and Related Disorders Association, of mild to moderate severity, with a Mini-Mental State Examination score (MMSE) 14 and ≦24, and a Clinical Dementia Rating Scale Sum of the Boxes (CDR-SB) score of 2. […] Subjects were required to be either receiving a stable dose of an AChEI (donepezil or rivastigmine) for at least 3 months before screening or not presently being treated with an AChEI or mementine for at least 30 days.\n(§4) Subjects with mild to moderate Alzheimer's disease receiving stable treatment with an AChEI (donepezil or rivastigmine: ‘add-on’ subjects) or not receiving an AChEI (de novo subjects′) received 0.3, 1, or 2 mg doses of Test Composition or placebo for up to 24 weeks (168 days) of double-blind treatment, after a 7-day single-blind, placebo run-in period to assess study drug compliance. A follow-up telephone contact was conducted approximately 15 days after the last dose of study drug for questions regarding safety.\nCognitive Part of the Alzheimer's Disease Assessment Scale (ADAS-Cog-11)\nThe ADAS-cog-11 test employed herein is based on the procedure developed in the adapted version of the Administration and Scoring Manual for the Alzheimer's Disease Assessment Scale, 1994 Revised Edition, Richard C. Mohs, Ph.D., © 1994 by The Mount Sinai School of Medicine, manual modified by Donald Connor, Ph.D., and Kimberly Schafer, M.S. (3/98).\nThe ADAS-cog-11 test includes the following test items: (1) Word Recall, (2) Naming Objects/Fingers, (3) Commands, (4) Construction Praxis, (5) Ideational Praxis, (6) Orientation, (7) Word Recognition, (8) Remembering Test Instructions, (9) Spoken Language Ability, (10) Word Finding Difficulty, and (11) Comprehension.\nThe ADAS-cog-11 total score ranges from 0 to 70 (higher scores indicate more severe impairment). A decrease from baseline indicates improvement."}, "[2]": {"test_system": "subjects with mild-to-moderate Alzheimer's disease", "assay": "Clinical study, Controlled Oral Word Association Test (COWAT)", "conditions": "2 mg dose versus Placebo", "description": "as §1, §2\nThe population included generally healthy male or female subjects, aged 50 to ≦85 years, with mild-to-moderate Alzheimer's disease, consistent with criteria defined by a Work Group of the National Institute of Neurological and Communicative Disorders and Stroke—Alzheimer's Disease and Related Disorders Association, of mild to moderate severity, with a Mini-Mental State Examination score (MMSE) 14 and ≦24, and a Clinical Dementia Rating Scale Sum of the Boxes (CDR-SB) score of 2. […]\nThe COWAT test includes (1) asking the subject to name words beginning with a specific letter (e.g., F, A, S), (2) each of 3 trials is timed for 60 seconds, and (3) the score is calculated by the number of new words beginning with the assigned letter."}, "[3]": {"test_system": "subjects with mild-to-moderate Alzheimer's disease", "assay": "Clinical study, Mini-Mental State Examination (MMSE)", "description": "as §1, §2, §3, §4\nMini-Mental State Examination (MMSE)\nThe MMSE test employed herein is based on the procedure developed by Folstein, M., Folstein, S., McHugh, P. Mini-Mental State: “A Practical Method for Grading the Cognitive State of Patients for the Clinician”; Journal of Psychiatric Research 1975, 12:189-98.\nThe MMSE test assesses and/or evaluates memory, orientation, recognition, attention, concentration, language, and praxis. The MMSE total score ranges from 0 to 30 points. Lower scores indicate a lower level of functioning. An increase from baseline indicates improvement."}, "[4]": {"test_system": "subjects with mild-to-moderate Alzheimer's disease", "assay": "Clinical study, Memory composite score", "description": "as §1, §4\nThese analyses were prespecified in the analytical plan (ITT population), and included the following: Cognition composite score (ADAS-cog Word Recall, Word Recognition, & Orientation, and COWAT and CFT), Memory composite score (ADAS-cog Word Recall, Word Recognition, and Orientation), and Executive Function composite score (COWAT and CFT).\nComposite Scores—Three composite scores were calculated: (1) Composite Cognition Score (ADAS-cog Word Recall, Word Recognition, and Orientation, COWAT and CFT); (2) Memory Composite Score (ADAS-cog Word Recall, Word Recognition, and Orientation); and (3) Executive Function Composite Score (COWAT and CFT).\nThe composite score is only computed when all test scores are available."}},
  "data": [
    {"compound": "Cl.O.O=C(N[C@H]1CN2CCC1CC2)c1cc2cccc(Cl)c2s1", "note": "[Test Compound, (R)-7-chloro-N-(quinuclidin-3-yl)benzo[b]thiophene-2-carboxamide, hydrochloride, monohydrate]", "values": [
      {"measurement": "ADAS-Cog-11 (Baseline was assigned the value of zero @ Week 0)", "setting": "[1]; 0.3 mg daily dose, Week 4", "value": "−0.3534"},
      {"measurement": "ADAS-Cog-11 (Baseline was assigned the value of zero @ Week 0)", "setting": "[1]; 0.3 mg daily dose, Week 12", "value": "−0.2129"},
      {"measurement": "ADAS-Cog-11 (Baseline was assigned the value of zero @ Week 0)", "setting": "[1]; 0.3 mg daily dose, Week 18", "value": "−0.067"},
      {"measurement": "ADAS-Cog-11 (Baseline was assigned the value of zero @ Week 0)", "setting": "[1]; 0.3 mg daily dose, Week 23", "value": 0.2755},
      {"measurement": "ADAS-Cog-11 (Baseline was assigned the value of zero @ Week 0)", "setting": "[1]; 1 mg daily dose, Week 4", "value": "−0.3412"},
      {"measurement": "ADAS-Cog-11 (Baseline was assigned the value of zero @ Week 0)", "setting": "[1]; 1 mg daily dose, Week 12", "value": "−0.8317"},
      {"measurement": "ADAS-Cog-11 (Baseline was assigned the value of zero @ Week 0)", "setting": "[1]; 1 mg daily dose, Week 18", "value": 0.1063},
      {"measurement": "ADAS-Cog-11 (Baseline was assigned the value of zero @ Week 0)", "setting": "[1]; 1 mg daily dose, Week 23", "value": 0.3534},
      {"measurement": "ADAS-Cog-11 (Baseline was assigned the value of zero @ Week 0)", "setting": "[1]; 2 mg daily dose, Week 4", "value": "−0.0031"},
      {"measurement": "ADAS-Cog-11 (Baseline was assigned the value of zero @ Week 0)", "setting": "[1]; 2 mg daily dose, Week 12", "value": "−0.998"},
      {"measurement": "ADAS-Cog-11 (Baseline was assigned the value of zero @ Week 0)", "setting": "[1]; 2 mg daily dose, Week 18", "value": "−1.1519"},
      {"measurement": "ADAS-Cog-11 (Baseline was assigned the value of zero @ Week 0)", "setting": "[1]; 2 mg daily dose, Week 23", "value": "−1.1188"},
      {"measurement": "ADAS-Cog 11 Effect Size", "setting": "[1]; 2 mg dose versus Placebo", "value": 0.34},
      {"measurement": "COWAT Effect Size", "setting": "[2]", "value": 0.35},
      {"measurement": "MMSE (Baseline was assigned the value of zero @ Week 0)", "setting": "[3]; 0.3 mg daily dose, Week 4", "value": "−0.0411"},
      {"measurement": "MMSE (Baseline was assigned the value of zero @ Week 0)", "setting": "[3]; 0.3 mg daily dose, Week 12", "value": 0.185},
      {"measurement": "MMSE (Baseline was assigned the value of zero @ Week 0)", "setting": "[3]; 0.3 mg daily dose, Week 18", "value": "−0.3601"},
      {"measurement": "MMSE (Baseline was assigned the value of zero @ Week 0)", "setting": "[3]; 0.3 mg daily dose, Week 23", "value": "−0.3112"},
      {"measurement": "MMSE (Baseline was assigned the value of zero @ Week 0)", "setting": "[3]; 1 mg daily dose, Week 4", "value": 0.9142},
      {"measurement": "MMSE (Baseline was assigned the value of zero @ Week 0)", "setting": "[3]; 1 mg daily dose, Week 12", "value": 0.7836},
      {"measurement": "MMSE (Baseline was assigned the value of zero @ Week 0)", "setting": "[3]; 1 mg daily dose, Week 18", "value": 0.7253},
      {"measurement": "MMSE (Baseline was assigned the value of zero @ Week 0)", "setting": "[3]; 1 mg daily dose, Week 23", "value": 0.4416},
      {"measurement": "MMSE (Baseline was assigned the value of zero @ Week 0)", "setting": "[3]; 2 mg daily dose, Week 4", "value": 0.5262},
      {"measurement": "MMSE (Baseline was assigned the value of zero @ Week 0)", "setting": "[3]; 2 mg daily dose, Week 12", "value": 0.3526},
      {"measurement": "MMSE (Baseline was assigned the value of zero @ Week 0)", "setting": "[3]; 2 mg daily dose, Week 18", "value": 0.723},
      {"measurement": "MMSE (Baseline was assigned the value of zero @ Week 0)", "setting": "[3]; 2 mg daily dose, Week 23", "value": 0.5139},
      {"measurement": "MMSE Effect Size", "setting": "[3]; 2 mg dose versus Placebo", "value": 0.21},
      {"measurement": "Memory Composite Score (Baseline was assigned the value of zero @ Week 0)", "setting": "[4]; 0.3 mg daily dose, Week 4", "value": "−0.0084"},
      {"measurement": "Memory Composite Score (Baseline was assigned the value of zero @ Week 0)", "setting": "[4]; 0.3 mg daily dose, Week 12", "value": "−0.0108"},
      {"measurement": "Memory Composite Score (Baseline was assigned the value of zero @ Week 0)", "setting": "[4]; 0.3 mg daily dose, Week 18", "value": "−0.0294"},
      {"measurement": "Memory Composite Score (Baseline was assigned the value of zero @ Week 0)", "setting": "[4]; 0.3 mg daily dose, Week 23", "value": "−0.0645"},
      {"measurement": "Memory Composite Score (Baseline was assigned the value of zero @ Week 0)", "setting": "[4]; 1 mg daily dose, Week 4", "value": "−0.0062"},
      {"measurement": "Memory Composite Score (Baseline was assigned the value of zero @ Week 0)", "setting": "[4]; 1 mg daily dose, Week 12", "value": 0.08},
      {"measurement": "Memory Composite Score (Baseline was assigned the value of zero @ Week 0)", "setting": "[4]; 1 mg daily dose, Week 18", "value": "−0.0456"},
      {"measurement": "Memory Composite Score (Baseline was assigned the value of zero @ Week 0)", "setting": "[4]; 1 mg daily dose, Week 23", "value": 0.0113},
      {"measurement": "Memory Composite Score (Baseline was assigned the value of zero @ Week 0)", "setting": "[4]; 2 mg daily dose, Week 4", "value": "−0.0032"},
      {"measurement": "Memory Composite Score (Baseline was assigned the value of zero @ Week 0)", "setting": "[4]; 2 mg daily dose, Week 12", "value": 0.1021},
      {"measurement": "Memory Composite Score (Baseline was assigned the value of zero @ Week 0)", "setting": "[4]; 2 mg daily dose, Week 18", "value": 0.117},
      {"measurement": "Memory Composite Score (Baseline was assigned the value of zero @ Week 0)", "setting": "[4]; 2 mg daily dose, Week 23", "value": 0.169},
      {"measurement": "Memory composite score Effect Size", "setting": "[4]; 2 mg versus placebo, over a 23 week period", "value": 0.37}
    ]}
  ]
}
